Test results reported in PubChem BioAssay AID252 (DTP/NCI, 2004).
Where “and” joins values, the source holds several entries; their conditions need not be identical. Equal values may be shown once. Inconclusive results and toxic doses are left out.

Tested on: BDF1 mice, intracerebral L1210 leukemia, survival T/C
Assay: NCI In Vivo Anticancer Drug Screen. Data for tumor model L1210 Leukemia (intracerebral) in B6D2F1 (BDF1) mice
Conditions: endpoint: mean survival time, higher = longer survival
Summary of the method: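 Readout is the T/C ratio: survival of compound-treated animals over that of vehicle-treated controls, in mice bearing transplantable tumour.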

[1] = dose: 30.0 mg/kg/injection, schedule: Q01DX001 (ip), vehicle: saline
[2] = dose: 60.0 mg/kg/injection, schedule: Q01DX001 (ip), vehicle: saline
[3] = dose: 100.0 mg/kg/injection, schedule: Q01DX001 (ip), vehicle: carboxymethylcellulose (CMC)

O=NN(CCCl)C(=O)NC1CCCCC1
T/C (dose: 1.0 mg/kg/injection, schedule: Q01DX001 (ip), vehicle: saline): 101 % of control | T/C (dose: 1.0 mg/kg/injection, schedule: Q01DX001 (oral), vehicle: saline): 91 % of control | T/C (dose: 1.0 mg/kg/injection, schedule: Q01DX Z (ip), vehicle: carboxymethylcellulose (CMC)): 103 % of control and 116 % of control | T/C (dose: 2.0 mg/kg/injection, schedule: Q01DX009 (ip), vehicle: carboxymethylcellulose (CMC)): 106 % of control | T/C (dose: 2.0 mg/kg/injection, schedule: Q01DX Z (ip), vehicle: carboxymethylcellulose (CMC)): 104 % of control and 108 % of control | T/C (dose: 4.0 mg/kg/injection, schedule: Q01DX Z (ip), vehicle: carboxymethylcellulose (CMC)): 118 % of control | T/C (dose: 5.0 mg/kg/injection, schedule: Q01DX001 (ip), vehicle: carboxymethylcellulose (CMC)): 115 % of control | T/C (dose: 5.1 mg/kg/injection, schedule: Q01DX001 (ip), vehicle: carboxymethylcellulose (CMC)): 111 % of control and 120 % of control | T/C (dose: 8.0 mg/kg/injection, schedule: Q01DX009 (ip), vehicle: carboxymethylcellulose (CMC)): 212 % of control | T/C (dose: 8.0 mg/kg/injection, schedule: Q01DX Z (ip), vehicle: carboxymethylcellulose (CMC)): 202 % of control | T/C (dose: 10.0 mg/kg/injection, schedule: Q01DX001 (ip), vehicle: saline): 113 % of control | T/C (dose: 10.0 mg/kg/injection, schedule: Q01DX001 (oral), vehicle: saline): 115 % of control | T/C (dose: 12.0 mg/kg/injection, schedule: Q01DX Z (ip), vehicle: carboxymethylcellulose (CMC)): 213 % of control | T/C (dose: 12.5 mg/kg/injection, schedule: Q01DX001 (ip), vehicle: carboxymethylcellulose (CMC)): 166 % of control and 176 % of control | T/C (dose: 14.0 mg/kg/injection, schedule: Q01DX001 (ip), vehicle: carboxymethylcellulose (CMC)): 114 % of control and 122 % of control | T/C (dose: 16.0 mg/kg/injection, schedule: Q01DX009 (ip), vehicle: carboxymethylcellulose (CMC)): 302 % of control | T/C (dose: 16.0 mg/kg/injection, schedule: Q01DX Z (ip), vehicle: carboxymethylcellulose (CMC)): 152 % of control and 162 % of control | T/C (dose: 20.0 mg/kg/injection, schedule: Q01DX001 (ip), vehicle: carboxymethylcellulose (CMC)): 292 % of control | T/C (dose: 24.25 mg/kg/injection, schedule: Q01DX001 (oral), vehicle: carboxymethylcellulose (CMC)): 266 % of control and 288 % of control and 339 % of control | T/C (dose: 25.0 mg/kg/injection, schedule: Q01DX001 (ip), vehicle: saline): 231 % of control | T/C (dose: 25.0 mg/kg/injection, schedule: Q01DX001 (oral), vehicle: saline): 243 % of control | T/C (dose: 30.0 mg/kg/injection, schedule: Q01DX001 (ip), vehicle: carboxymethylcellulose (CMC)): 240 % of control and 321 % of control | T/C [1]: 322 % of control | T/C (dose: 31.0 mg/kg/injection, schedule: Q01DX Z (ip), vehicle: carboxymethylcellulose (CMC)): 152 % of control | T/C (dose: 32.0 mg/kg/injection, schedule: Q01DX001 (ip), vehicle: carboxymethylcellulose (CMC)): 165 % of control and 246 % of control | T/C (dose: 33.0 mg/kg/injection, schedule: Q01DX001 (ip), vehicle: carboxymethylcellulose (CMC)): 459 % of control | T/C (dose: 36.0 mg/kg/injection, schedule: Q01DX001 (ip), vehicle: carboxymethylcellulose (CMC)): 277 % of control | T/C (dose: 37.5 mg/kg/injection, schedule: Q01DX001 (ip), vehicle: carboxymethylcellulose (CMC)): 269 % of control | T/C (dose: 40.0 mg/kg/injection, schedule: Q01DX001 (ip), vehicle: saline): 240 % of control | T/C (dose: 43.0 mg/kg/injection, schedule: Q01DX001 (ip), vehicle: carboxymethylcellulose (CMC)): 481 % of control and 731 % of control | T/C (dose: 45.0 mg/kg/injection, schedule: Q01DX001 (ip), vehicle: carboxymethylcellulose (CMC)): 189 % of control | T/C (dose: 48.0 mg/kg/injection, schedule: Q01DX001 (ip), vehicle: carboxymethylcellulose (CMC)): 274 % of control and 306 % of control | T/C (dose: 48.5 mg/kg/injection, schedule: Q01DX001 (oral), vehicle: carboxymethylcellulose (CMC)): 278 % of control and 337 % of control and 420 % of control | T/C (dose: 50.0 mg/kg/injection, schedule: Q01DX001 (ip), vehicle: saline): 218 % of control and 277 % of control | T/C (dose: 50.0 mg/kg/injection, schedule: Q01DX001 (oral), vehicle: saline): 255 % of control | T/C (dose: 55.0 mg/kg/injection, schedule: Q01DX001 (ip), vehicle: carboxymethylcellulose (CMC)): 473 % of control | T/C (dose: 60.0 mg/kg/injection, schedule: Q01DX001 (ip), vehicle: carboxymethylcellulose (CMC)): 359 % of control and 414 % of control and 463 % of control | T/C [2]: 227 % of control | T/C (dose: 62.0 mg/kg/injection, schedule: Q01DX Z (ip), vehicle: carboxymethylcellulose (CMC)): 91 % of control and 94 % of control | T/C (dose: 70.0 mg/kg/injection, schedule: Q01DX001 (ip), vehicle: carboxymethylcellulose (CMC)): 267 % of control | T/C (dose: 70.0 mg/kg/injection, schedule: Q01DX001 (ip), vehicle: saline): 109 % of control | T/C (dose: 72.0 mg/kg/injection, schedule: Q01DX001 (ip), vehicle: carboxymethylcellulose (CMC)): 208 % of control and 284 % of control and 293 % of control | T/C (dose: 75.0 mg/kg/injection, schedule: Q01DX001 (ip), vehicle: carboxymethylcellulose (CMC)): 294 % of control | T/C (dose: 75.0 mg/kg/injection, schedule: Q01DX001 (ip), vehicle: saline): 276 % of control | T/C (dose: 75.0 mg/kg/injection, schedule: Q01DX001 (oral), vehicle: saline): 208 % of control | T/C (dose: 80.0 mg/kg/injection, schedule: Q01DX001 (ip), vehicle: carboxymethylcellulose (CMC)): 184 % of control | T/C (dose: 86.0 mg/kg/injection, schedule: Q01DX001 (ip), vehicle: carboxymethylcellulose (CMC)): 184 % of control and 211 % of control | T/C (dose: 97.0 mg/kg/injection, schedule: Q01DX001 (oral), vehicle: carboxymethylcellulose (CMC)): 120 % of control and 122 % of control | T/C [3]: 103 % of control | T/C (dose: 100.0 mg/kg/injection, schedule: Q01DX001 (ip), vehicle: saline): 89 % of control | T/C (dose: 100.0 mg/kg/injection, schedule: Q01DX001 (oral), vehicle: saline): 102 % of control

NC(C/[N+]([O-])=N/O)C(=O)O (stereo not given)
T/C (dose: 25.0 mg/kg/injection, schedule: Q01DX009 (ip), vehicle: other): 96 % of control | T/C (dose: 50.0 mg/kg/injection, schedule: Q01DX001 (ip), vehicle: other): 97 % of control | T/C (dose: 50.0 mg/kg/injection, schedule: Q01DX009 (ip), vehicle: other): 98 % of control | T/C (dose: 100.0 mg/kg/injection, schedule: Q01DX001 (ip), vehicle: other): 98 % of control | T/C (dose: 100.0 mg/kg/injection, schedule: Q01DX009 (ip), vehicle: other): 91 % of control | T/C (dose: 200.0 mg/kg/injection, schedule: Q01DX001 (ip), vehicle: other): 101 % of control | T/C (dose: 400.0 mg/kg/injection, schedule: Q01DX001 (ip), vehicle: other): 106 % of control

CNC(=O)N(C)N=O
T/C (dose: 112.0 mg/kg/injection, schedule: Q01DX001 (ip), vehicle: carboxymethylcellulose (CMC)): 115 % of control | T/C (dose: 167.0 mg/kg/injection, schedule: Q01DX001 (ip), vehicle: carboxymethylcellulose (CMC)): 113 % of control | T/C (dose: 225.0 mg/kg/injection, schedule: Q01DX001 (ip), vehicle: carboxymethylcellulose (CMC)): 161 % of control | T/C (dose: 375.0 mg/kg/injection, schedule: Q01DX001 (ip), vehicle: carboxymethylcellulose (CMC)): 112 % of control

CCN(N=O)C(N)=O
T/C (dose: 67.0 mg/kg/injection, schedule: Q01DX001 (ip), vehicle: carboxymethylcellulose (CMC)): 97 % of control | T/C [3]: 105 % of control | T/C (dose: 150.0 mg/kg/injection, schedule: Q01DX001 (ip), vehicle: carboxymethylcellulose (CMC)): 104 % of control

CCOC(=O)C(CC(C)C)NC(=O)C(Cc1ccc(N(CCCl)CCCl)cc1)NC(C)=O (stereo not given)
T/C (dose: 2.0 mg/kg/injection, schedule: Q01DX009 (ip), vehicle: DMSO): 90 % of control | T/C (dose: 4.0 mg/kg/injection, schedule: Q01DX009 (ip), vehicle: DMSO): 92 % of control

COc1ccc(NC(=O)N(CCCl)N=O)cc1
T/C (dose: 4.4 mg/kg/injection, schedule: Q01DX015 (ip), vehicle: saline): 105 % of control | T/C (dose: 6.6 mg/kg/injection, schedule: Q01DX015 (ip), vehicle: saline): 113 % of control | T/C (dose: 9.9 mg/kg/injection, schedule: Q01DX001 (ip), vehicle: carboxymethylcellulose (CMC)): 104 % of control | T/C (dose: 10.0 mg/kg/injection, schedule: Q01DX015 (ip), vehicle: saline): 113 % of control | T/C (dose: 15.0 mg/kg/injection, schedule: Q01DX001 (ip), vehicle: saline): 102 % of control | T/C (dose: 15.0 mg/kg/injection, schedule: Q01DX015 (ip), vehicle: saline): 124 % of control | T/C (dose: 19.8 mg/kg/injection, schedule: Q01DX001 (ip), vehicle: carboxymethylcellulose (CMC)): 108 % of control | T/C (dose: 22.0 mg/kg/injection, schedule: Q01DX015 (ip), vehicle: saline): 104 % of control | T/C [1]: 105 % of control | T/C (dose: 39.6 mg/kg/injection, schedule: Q01DX001 (ip), vehicle: carboxymethylcellulose (CMC)): 102 % of control | T/C [2]: 108 % of control | T/C (dose: 120.0 mg/kg/injection, schedule: Q01DX001 (ip), vehicle: saline): 113 % of control | T/C (dose: 240.0 mg/kg/injection, schedule: Q01DX001 (ip), vehicle: saline): 111 % of control
